The results in this text go back to patent US20230263822A1, “MODULATION OF FACTOR 11 EXPRESSION” (Ionis Pharmaceuticals, Inc., priority 2008, published 2023).

Strand notation (5' to 3'): a small letter for the sugar, then the base; units joined by * are phosphorothioate-linked, units joined directly phosphodiester-linked; [ ] holds rarer units or linkages, { } end groups; capitals alone tell only the bases. e = 2'-O-(2-methoxyethyl) (MOE); [5mC] = 5-methylcytosine; d = 2'-deoxy (DNA)

The first data set concerns human Factor 11 mRNA. Briefly: Antisense inhibition of human Factor 11 in HepG2 cells by microwalk gapmers, lipofectin, 75 nM (Example 3). The class given is cell-based. Particulars: HepG2, lipofectin, ~24 h, gapmers targeted to nucleobases 656 to 704 of SEQ ID NO: 1. On the procedure:
These gapmers were designed by creating gapmers shifted slightly upstream and downstream (i.e. “microwalk”) of the original gapmers from Table 3. Gapmers were also created with various motifs, e.g. 5-10-5 MOE, 3-14-3 MOE, and 2-13-5 MOE. These gapmers were tested in vitro. Cultured HepG2 cells at a density of 10,000 cells per well were transfected using lipofectin reagent with 75 nM antisense oligonucleotide. After a treatment period of approximately 24 hours, RNA was isolated from the cells and Factor 11 mRNA levels were measured by quantitative real-time PCR. Factor 11 mRNA levels were adjusted according to total RNA content, as measured by RIBOGREEN. Results are presented as percent inhibition of Factor 11, relative to untreated control cells.
The chimeric antisense oligonucleotides in Table 4 were designed as 5-10-5 MOE, 3-14-3 MOE, and 2-13-5 MOE gapmers. The first listed gapmers in Table 4 are the original gapmers (see Table 3) from which the remaining gapmers were designed via microwalk and are designated by an asterisk. The 5-10-5 gapmers are 20 nucleotides in length, wherein the central gap segment is comprised of 10 2′-deoxynucleotides and is flanked on both sides (in the 5′ and 3′ directions) by wings comprising 5 nucleotides each. The 3-14-3 gapmers are 20 nucleotides in length, wherein the central gap segment is comprised of 14 2′-deoxynucleotides and is flanked on both sides (in the 5′ and 3′ directions) by wings comprising 3 nucleotides each. The 2-13-5 gapmers are 20 nucleotides in length, wherein the central gap segment is comprised of 13 2′-deoxynucleotides. The central gap is flanked on the 5′ end with a wing comprising 2 nucleotides and on the 3′ end with a wing comprising 5 nucleotides. For each of the motifs (5-10-5, 3-14-3, and 2-13-5), each nucleotide in the 5′ wing segment and each nucleotide in the 3′ wing segment has a 2′-MOE modification. The internucleoside linkages throughout each gapmer are phosphorothioate (P=S) linkages. All cytidine residues throughout each gapmer are 5-methyl cytidines. “Target start site” indicates the 5′-most nucleotide to which the gapmer is targeted. “Target stop site” indicates the 3′-most nucleotide to which the gapmer is targeted. Each gapmer listed in Table 4 is targeted to SEQ ID NO: 1 (GENBANK Accession No. NM_000128.3).
Regarding “416879 (antisense eA*eG*eG*dT*d[5mC]*d[5mC]*dA*d[5mC]*dA*dT*dA*dA*dA*dT*dG*dT*d[5mC]*eT*eT*eT) [compound 416879]”, the “% inhibition” value stood at 92%.

Consider “416824 (antisense e[5mC]*e[5mC]*e[5mC]*eT*eT*d[5mC]*dA*dT*dG*dT*d[5mC]*dT*dA*dG*dG*eT*e[5mC]*e[5mC]*eA*e[5mC]) [compound 416824]”, for which the “% inhibition” value is recorded as 64%.

For “416948 (antisense eA*eT*dA*dA*dA*dT*dG*dT*d[5mC]*dT*dT*dT*dG*dT*dT*eG*e[5mC]*eA*eA*eG) [compound 416948]”, the “% inhibition” value is listed as 62%.

With “416949 (antisense e[5mC]*eA*dT*dA*dA*dA*dT*dG*dT*d[5mC]*dT*dT*dT*dG*dT*eT*eG*e[5mC]*eA*eA) [compound 416949]”, the “% inhibition” value came to 64%.

On to “416823 (antisense e[5mC]*e[5mC]*eT*eT*e[5mC]*dA*dT*dG*dT*d[5mC]*dT*dA*dG*dG*dT*e[5mC]*e[5mC]*eA*e[5mC]*eA) [compound 416823]”, for which the “% inhibition” value is on record as 77%.

As to “416869 (antisense eA*eA*eA*dT*dG*dT*d[5mC]*dT*dT*dT*dG*dT*dT*dG*d[5mC]*dA*dA*eG*e[5mC]*eG) [compound 416869]”, the “% inhibition” value amounted to 81%.

For the substance “416960 (antisense eG*eT*d[5mC]*dT*dA*dG*dG*dT*d[5mC]*d[5mC]*dA*d[5mC]*dA*dT*dA*eA*eA*eT*eG*eT) [compound 416960]”, the “% inhibition” value was 60%.

Consider “416806 (antisense eA*eA*eA*eT*eG*dT*d[5mC]*dT*dT*dT*dG*dT*dT*dG*d[5mC]*eA*eA*eG*e[5mC]*eG) [compound 416806]”, for which the “% inhibition” value is given as 86%.

Consider “416884 (antisense eT*eG*eT*d[5mC]*dT*dA*dG*dG*dT*d[5mC]*d[5mC]*dA*d[5mC]*dA*dT*dA*dA*eA*eT*eG) [compound 416884]”, for which the “% inhibition” value is listed as 69%.

With “416818 (antisense eT*eG*eT*e[5mC]*eT*dA*dG*dG*dT*d[5mC]*d[5mC]*dA*d[5mC]*dA*dT*eA*eA*eA*eT*eG) [compound 416818]”, the “% inhibition” value is given as 76%.

For the substance “416819 (antisense eA*eT*eG*eT*e[5mC]*dT*dA*dG*dG*dT*d[5mC]*d[5mC]*dA*d[5mC]*dA*eT*eA*eA*eA*eT) [compound 416819]”, the “% inhibition” value was found to be 56%.

With “416888 (antisense eT*eT*e[5mC]*dA*dT*dG*dT*d[5mC]*dT*dA*dG*dG*dT*d[5mC]*d[5mC]*dA*d[5mC]*eA*eT*eA) [compound 416888]”, the “% inhibition” value is listed as 76%.

Consider “416883 (antisense eG*eT*e[5mC]*dT*dA*dG*dG*dT*d[5mC]*d[5mC]*dA*d[5mC]*dA*dT*dA*dA*dA*eT*eG*eT) [compound 416883]”, for which the “% inhibition” value is reported as 82%.

Regarding “416885 (antisense eA*eT*eG*dT*d[5mC]*dT*dA*dG*dG*dT*d[5mC]*d[5mC]*dA*d[5mC]*dA*dT*dA*eA*eA*eT) [compound 416885]”, the “% inhibition” value was 67%.

Take “416817 (antisense eT*e[5mC]*eT*eA*eG*dG*dT*d[5mC]*d[5mC]*dA*d[5mC]*dA*dT*dA*dA*eA*eT*eG*eT*e[5mC]) [compound 416817]”: the “% inhibition” value was 74%.

In the case of “416955 (antisense eG*eG*dT*d[5mC]*d[5mC]*dA*d[5mC]*dA*dT*dA*dA*dA*dT*dG*dT*e[5mC]*eT*eT*eT*eG) [compound 416955]”, the “% inhibition” value is reported as 75%.

On to “416964 (antisense eT*e[5mC]*dA*dT*dG*dT*d[5mC]*dT*dA*dG*dG*dT*d[5mC]*d[5mC]*dA*e[5mC]*eA*eT*eA*eA) [compound 416964]”, for which the “% inhibition” value worked out at 69%.

With “416962 (antisense eA*eT*dG*dT*d[5mC]*dT*dA*dG*dG*dT*d[5mC]*d[5mC]*dA*d[5mC]*dA*eT*eA*eA*eA*eT) [compound 416962]”, the “% inhibition” value was 77%.

The data set is the same for the next values; noted with them: HepG2 cells, lipofectin, gapmers targeted to nucleobases 738 to 762 of SEQ ID NO: 1.
With “416898 (antisense e[5mC]*e[5mC]*eG*dT*dG*d[5mC]*dA*dT*d[5mC]*dT*dT*dT*d[5mC]*dT*dT*dG*dG*e[5mC]*eA*eT) [compound 416898]”, the “% inhibition” value was found to be 88%.

Take “416831 (antisense eA*eT*e[5mC]*e[5mC]*eG*dT*dG*d[5mC]*dA*dT*d[5mC]*dT*dT*dT*d[5mC]*eT*eT*eG*eG*e[5mC]) [compound 416831]”: the “% inhibition” value worked out at 91%.

For the substance “416830 (antisense eT*e[5mC]*e[5mC]*eG*eT*dG*d[5mC]*dA*dT*d[5mC]*dT*dT*dT*d[5mC]*dT*eT*eG*eG*e[5mC]*eA) [compound 416830]”, the “% inhibition” value stood at 81%.

Consider “416977 (antisense eA*eT*d[5mC]*d[5mC]*dG*dT*dG*d[5mC]*dA*dT*d[5mC]*dT*dT*dT*d[5mC]*eT*eT*eG*eG*e[5mC]) [compound 416977]”, for which the “% inhibition” value came out at 82%.

As to “416901 (antisense e[5mC]*eA*eT*d[5mC]*d[5mC]*dG*dT*dG*d[5mC]*dA*dT*d[5mC]*dT*dT*dT*d[5mC]*dT*eT*eG*eG) [compound 416901]”, the “% inhibition” value stood at 65%.

Staying with this data set, now noted: HepG2 cells, lipofectin, gapmers targeted to nucleobases 1018 to 1042 of SEQ ID NO: 1.
With “416904 (antisense e[5mC]*e[5mC]*eG*dG*dG*dA*dT*dG*dA*dT*dG*dA*dG*dT*dG*d[5mC]*dA*eG*eA*eT) [compound 416904]”, the “% inhibition” value turned out to be 90%.

Staying with this data set, now noted: HepG2 cells, lipofectin, gapmers targeted to nucleobases 1062 to 1091 of SEQ ID NO: 1.
With “416915 (antisense eT*eT*eT*dG*dA*dG*dA*dT*dT*d[5mC]*dT*dT*dT*dG*dG*dG*d[5mC]*e[5mC]*eA*eT) [compound 416915]”, the “% inhibition” value came out at 79%.

Take “416994 (antisense eT*e[5mC]*dT*dT*dT*dG*dA*dG*dA*dT*dT*d[5mC]*dT*dT*dT*eG*eG*eG*e[5mC]*e[5mC]) [compound 416994]”: the “% inhibition” value was 83%.

As to “416991 (antisense eT*eT*dG*dA*dG*dA*dT*dT*d[5mC]*dT*dT*dT*dG*dG*dG*e[5mC]*e[5mC]*eA*eT*eT) [compound 416991]”, the “% inhibition” value stood at 87%.

The data set is the same for the next values; noted with them: HepG2 cells, lipofectin, gapmers targeted to nucleobases 1275 to 1318 of SEQ ID NO: 1.
Take “417013 (antisense e[5mC]*eG*dG*dA*d[5mC]*dG*dG*d[5mC]*dA*dT*dT*dG*dG*dT*dG*e[5mC]*eA*e[5mC]*eA*eG) [compound 417013]”: the “% inhibition” value was 86%.

Consider “417001 (antisense eG*eT*dG*d[5mC]*dA*d[5mC]*dA*dG*dT*dT*dT*d[5mC]*dT*dG*dG*e[5mC]*eA*eG*eG*e[5mC]) [compound 417001]”, for which the “% inhibition” value was 83%.

“417015 (antisense eA*eG*d[5mC]*dG*dG*dA*d[5mC]*dG*dG*d[5mC]*dA*dT*dT*dG*dG*eT*eG*e[5mC]*eA*e[5mC]) [compound 417015]”: the “% inhibition” value worked out at 87%.

Regarding “417011 (antisense eG*eA*d[5mC]*dG*dG*d[5mC]*dA*dT*dT*dG*dG*dT*dG*d[5mC]*dA*e[5mC]*eA*eG*eT*eT) [compound 417011]”, the “% inhibition” value turned out to be 86%.

As to “417010 (antisense eA*e[5mC]*dG*dG*d[5mC]*dA*dT*dT*dG*dG*dT*dG*d[5mC]*dA*d[5mC]*eA*eG*eT*eT*eT) [compound 417010]”, the “% inhibition” value turned out to be 81%.

As to “417007 (antisense eG*e[5mC]*dA*dT*dT*dG*dG*dT*dG*d[5mC]*dA*d[5mC]*dA*dG*dT*eT*eT*e[5mC]*eT*eG) [compound 417007]”, the “% inhibition” value amounted to 82%.

“417005 (antisense eA*eT*dT*dG*dG*dT*dG*d[5mC]*dA*d[5mC]*dA*dG*dT*dT*dT*e[5mC]*eT*eG*eG*e[5mC]) [compound 417005]”: the “% inhibition” value is reported as 79%.

Consider “416929 (antisense e[5mC]*eA*eT*dT*dG*dG*dT*dG*d[5mC]*dA*d[5mC]*dA*dG*dT*dT*dT*d[5mC]*eT*eG*eG) [compound 416929]”, for which the “% inhibition” value was 83%.

On to “416940 (antisense eG*e[5mC]*eA*dG*d[5mC]*dG*dG*dA*d[5mC]*dG*dG*d[5mC]*dA*dT*dT*dG*dG*eT*eG*e[5mC]) [compound 416940]”, for which the “% inhibition” value is recorded as 92%.

Turning to “416998 (antisense e[5mC]*eA*d[5mC]*dA*dG*dT*dT*dT*d[5mC]*dT*dG*dG*d[5mC]*dA*dG*eG*e[5mC]*e[5mC]*eT*e[5mC]) [compound 416998]”, the “% inhibition” value is 88%.

With “417016 (antisense e[5mC]*eA*dG*d[5mC]*dG*dG*dA*d[5mC]*dG*dG*d[5mC]*dA*dT*dT*dG*eG*eT*eG*e[5mC]*eA) [compound 417016]”, the “% inhibition” value is given as 85%.

With “416934 (antisense eG*eA*e[5mC]*dG*dG*d[5mC]*dA*dT*dT*dG*dG*dT*dG*d[5mC]*dA*d[5mC]*dA*eG*eT*eT) [compound 416934]”, the “% inhibition” value turned out to be 90%.

A word on the % inhibition: it is the share of the control response that was lost under treatment. Low values mean a response near the control, high ones a response far below the control.
